Experimental findings from ChEMBL document CHEMBL1139623, “4,5-Disubstituted cis-pyrrolidinones as inhibitors of type II 17beta-hydroxysteroid dehydrogenase. Part 2. SAR” (Bioorg Med Chem Lett, 2005) are described below.

Molecules are shown by their SMILES.

For this assay, the target named is T1, 17-beta-hydroxysteroid dehydrogenase type 2 (Homo sapiens, UniProt P37059).
T1 sequence (P37059 whole entry): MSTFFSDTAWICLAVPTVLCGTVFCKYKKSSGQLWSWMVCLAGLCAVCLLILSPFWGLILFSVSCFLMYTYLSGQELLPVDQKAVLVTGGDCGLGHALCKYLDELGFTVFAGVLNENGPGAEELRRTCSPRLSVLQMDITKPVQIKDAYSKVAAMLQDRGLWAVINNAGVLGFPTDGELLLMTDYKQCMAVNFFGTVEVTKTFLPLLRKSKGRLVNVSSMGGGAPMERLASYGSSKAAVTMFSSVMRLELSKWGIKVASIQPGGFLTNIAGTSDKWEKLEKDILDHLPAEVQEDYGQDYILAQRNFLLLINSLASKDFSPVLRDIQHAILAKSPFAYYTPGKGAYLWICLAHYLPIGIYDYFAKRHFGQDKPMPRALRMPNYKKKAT
Nature of the assay: Inhibitory concentration against 17 beta hydroxysteroid dehydrogenase type 2 (type II 17-beta-HSD II).
In turn, `Cc1cccc([C@H](O)[C@H]2[C@@H](c3ccccc3)CC(=O)N2C)c1` came in with an IC50 of 1520 nM. For the compound `CN1C(=O)C[C@H](c2ccc([N+](=O)[O-])cc2)[C@@H]1[C@@H](O)c1ccc(-c2ccccc2)s1`, the IC50 is > 10000 nM. The compound `CN1C(=O)C[C@H](c2ccccc2)[C@@H]1Cc1cccc(Cl)c1` had an IC50 of 2180 nM. With `CN1C(=O)C[C@H](c2ccccc2)[C@@H]1[C@@H](O)c1cc2ccccc2s1` the figure was 590 nM; with `CN1C(=O)C[C@H](c2ccccc2)[C@@H]1[C@@H](O)CCc1ccccc1`, 1830 nM. Turning to `CN1C(=O)C[C@H](c2ccccc2)[C@@H]1[C@H](O)c1cccc(Cl)c1`, the IC50 was > 10000 nM. The compound `CN1C(=O)C[C@H](c2ccccc2)[C@@H]1[C@@H](O)c1ccc(-c2ccc(O)cc2)cc1` had an IC50 of 1130 nM. As for `CN1C(=O)C[C@H](c2ccccc2)[C@@H]1[C@@H](O)c1cccc(C(F)(F)F)c1`, the figure is 880 nM; as for `CN1C(=O)C[C@H](c2ccccc2)[C@@H]1[C@@H](O)c1ccc(-c2ccccc2)o1`, 3240 nM. `CN1C(=O)C[C@H](c2ccccc2)[C@@H]1[C@@H](O)c1ccc2c(c1)OCO2` returned an IC50 of 960 nM. In turn, `CN1C(=O)C[C@H](c2ccccc2)[C@@H]1[C@@H](O)c1cccc(-c2ccccc2)c1` returned an IC50 of 420 nM.

`CN1C(=O)C[C@H](c2ccccc2)[C@@H]1[C@@H](O)c1cccs1` returned an IC50 of 400 nM. In turn, `O=C1C[C@H](c2ccccc2)[C@H]([C@@H](O)c2cccs2)N1Cc1ccccc1` returned an IC50 of 4180 nM. The compound `COc1cccc([C@H](O)[C@H]2[C@@H](c3ccccc3)CC(=O)N2C)c1` displayed an IC50 of 810 nM. Against the preceding compound, the IC50 is about 5.2-fold lower. In turn, `CN1C(=O)C[C@H](c2ccccc2)[C@@H]1[C@@H](O)C#Cc1ccccc1` returned an IC50 of 430 nM. Turning to `CN1C(=O)C[C@H](c2ccccc2)[C@@H]1C(=O)c1cccs1`, the IC50 was > 10000 nM.

`CN1C(=O)C[C@H](c2ccccc2)[C@@H]1[C@@H](O)c1ccc(Cl)c(Cl)c1` showed an IC50 of 440 nM.

`COc1cccc(C#C[C@H](O)[C@H]2[C@@H](c3ccccc3)CC(=O)N2C)c1` had an IC50 of 1090 nM. Compared with the last compound, the IC50 is about 2.5-fold higher. On to `Cc1ccc([C@H](O)[C@H]2[C@@H](c3ccccc3)CC(=O)N2C)cc1`, for which the 50% inhibitory concentration (IC50) is 1820 nM. Against the preceding compound, the IC50 is about 1.7-fold higher.

Turning to `CN1C(=O)C[C@H](c2ccccc2)[C@@H]1[C@@H](O)C#Cc1ccccc1F`, half-maximal inhibition (IC50) required 320 nM. Against the preceding compound, the IC50 is about 5.7-fold lower. Compound `CN1C(=O)C[C@H](c2ccccc2)[C@@H]1[C@@H](O)C#Cc1cccc(O)c1` had an IC50 of 1760 nM.

In turn, `CN1C(=O)C[C@H](c2ccccc2)[C@@H]1[C@@H](O)c1ccc(Cl)cc1` registered a half-inhibitory concentration (IC50) of 1960 nM.

In turn, `CN1C(=O)C[C@H](c2ccccc2)[C@@H]1[C@@H](O)c1ccc(Br)o1` came in with a concentration for half-maximal inhibition (IC50) of 1270 nM. Compared with the last compound, the IC50 is about 1.5-fold lower.

`CO[C@@H](c1cccc(Cl)c1)[C@H]1[C@@H](c2ccccc2)CC(=O)N1C` came in with a half-inhibitory concentration (IC50) of 900 nM.

`CNc1ccc([C@H]2CC(=O)N(C)[C@H]2[C@@H](O)c2ccc(-c3ccccc3)s2)cc1` showed an IC50 of 1670 nM. This IC50 is about 1.9-fold higher than that of the compound before. On to `CN1C(=O)C[C@H](c2ccccc2)[C@@H]1[C@@H](O)C#Cc1ccc(F)cc1`, for which the half-maximal inhibitory concentration (IC50) was 480 nM. Compound `CN1C(=O)C[C@H](c2ccccc2)[C@@H]1[C@@H](O)c1ccco1` registered a concentration for half-maximal inhibition (IC50) of 3180 nM. With `CN1C(=O)C[C@H](c2ccccc2)[C@@H]1[C@@H](O)c1ccc(-c2ccc(F)cc2)cc1`, the half-maximal inhibitory concentration (IC50) came to 1260 nM. `CN1C(=O)C[C@H](c2ccccc2)[C@@H]1[C@@H](O)c1ccccc1` registered an IC50 of 5000 nM. This IC50 is about 4-fold higher than that of the compound before. With `CN1C(=O)C[C@H](c2ccc(N)cc2)[C@@H]1[C@@H](O)c1ccc(-c2ccccc2)s1` the figure was 190 nM. `CN1C(=O)C[C@H](c2ccccc2)[C@@H]1[C@@H](O)Cc1cccc(Cl)c1` gave a half-maximal inhibitory concentration (IC50) of 2390 nM. This IC50 lies about 13-fold higher than the previous one. Compound `CN1C(=O)C[C@H](c2ccccc2)[C@@H]1[C@@H](O)c1coc2ccccc12` registered an IC50 of 1160 nM. `CN1C(=O)C[C@H](c2ccccc2)[C@@H]1[C@@H](O)c1ccc(-c2ccccc2)cc1` showed an IC50 of 1020 nM. As for `CN1C(=O)C[C@H](c2ccccc2)[C@@H]1[C@@H](O)C(C)(C)C`, the figure is > 10000 nM; as for `CN(C)c1ccc([C@H](O)[C@H]2[C@@H](c3ccccc3)CC(=O)N2C)cc1`, 1650 nM. Compound `CN1C(=O)C[C@H](c2ccc(O)cc2)[C@@H]1[C@@H](O)c1ccc(-c2ccccc2)s1` returned a half-inhibitory concentration (IC50) of 220 nM. Compound `Cc1ccc([C@H](O)[C@H]2[C@@H](c3ccccc3)CC(=O)N2C)s1` displayed an IC50 of 560 nM. `CN1C(=O)C[C@H](c2ccccc2)[C@@H]1[C@@H](O)c1ccc(Br)s1` gave an IC50 of 1200 nM. Compared with the last compound, the IC50 is about 2.1-fold higher. Turning to `CN1C(=O)C[C@H](c2ccccc2)[C@@H]1[C@@H](O)C#Cc1cccc(N)c1`, half-maximal inhibition (IC50) was put at 370 nM. With `Cc1ccc(C#C[C@H](O)[C@H]2[C@@H](c3ccccc3)CC(=O)N2C)cc1` the figure was 800 nM; with `COc1ccc([C@H](O)[C@H]2[C@@H](c3ccccc3)CC(=O)N2C)cc1`, 1230 nM. The compound `CN1C(=O)C[C@H](c2ccccc2)[C@@H]1[C@@H](O)C#Cc1ccccn1` displayed an IC50 of 1500 nM.

The compound `CN1C(=O)C[C@H](c2ccccc2)[C@@H]1[C@@H](O)/C=C/c1ccc(F)cc1` had a half-maximal inhibitory concentration (IC50) of 1400 nM. On to `CN(C)c1ccc([C@H]2CC(=O)N(C)[C@H]2[C@@H](O)c2ccc(-c3ccccc3)s2)cc1`, for which the IC50 came to 2430 nM.

With `CN1C(=O)C[C@H](c2ccccc2)[C@@H]1[C@@H](O)c1cc2ccccc2[nH]1`, the IC50 was > 10000 nM. As for `CN1C(=O)C[C@H](c2ccccc2)[C@@H]1[C@@H](O)c1cccc(-c2ccc(F)cc2)c1`, the IC50 amounted to 2780 nM. `CC(=O)O[C@@H](c1cccs1)[C@H]1[C@@H](c2ccccc2)CC(=O)N1C` registered a half-inhibitory concentration (IC50) of 1370 nM. With `CN1C(=O)C[C@H](c2ccccc2)[C@@H]1[C@@H](O)C#Cc1ccccc1Cl` the figure was 300 nM.

Consider `CC(=O)Nc1ccc([C@H]2CC(=O)N(C)[C@H]2[C@@H](O)c2ccc(-c3ccccc3)s2)cc1`, for which the concentration for half-maximal inhibition (IC50) was > 10000 nM.

As for `CN1C(=O)C[C@H](c2ccccc2)[C@@H]1[C@@H](O)c1ccc(-c2ccccc2)s1`, the midpoint of inhibition, the IC50, lay at 100 nM. The compound `CN1C(=O)C[C@H](c2ccccc2)[C@@H]1[C@@H](O)CCc1ccc(F)cc1` yielded an IC50 of 1530 nM. Against the preceding compound, the IC50 is about 15-fold higher. For `CN1C(=O)C[C@H](c2ccccc2)[C@@H]1[C@@H](O)c1cccc(Cl)c1`, the concentration for half-maximal inhibition (IC50) amounted to 700 nM. Against the preceding compound, the IC50 is about 2.2-fold lower. The compound `CN1C(=O)C[C@H](c2ccccc2)[C@@H]1C(F)c1cccs1` (some centres not stated) displayed a half-inhibitory concentration (IC50) of 2980 nM.

In turn, `COc1ccc([C@H]2CC(=O)N(C)[C@H]2[C@@H](O)c2ccc(-c3ccccc3)s2)cc1` returned an IC50 of 890 nM.

With `CN1C(=O)C[C@H](c2ccccc2)[C@@H]1[C@@H](OCCO)c1cccs1`, the IC50 is > 10000 nM. In the case of `CN1C(=O)C[C@H](c2ccccc2)[C@@H]1[C@@H](O)c1csc2ccccc12`, inhibition was half-maximal at 2660 nM (IC50). The compound `CO[C@@H](c1cccs1)[C@H]1[C@@H](c2ccccc2)CC(=O)N1C` displayed a half-inhibitory concentration (IC50) of 3910 nM. `O=C1C[C@H](c2ccccc2)[C@H]([C@@H](O)c2cccs2)N1`: the concentration for half-maximal inhibition (IC50) was > 10000 nM. On to `CN1C(=O)C[C@H](c2ccccc2)[C@@H]1C(=O)c1cccc(Cl)c1`, for which the IC50 was > 10000 nM.

As for `CN1C(=O)C[C@H](c2ccc(NS(C)(=O)=O)cc2)[C@@H]1[C@@H](O)c1ccc(-c2ccccc2)s1`, the IC50 is > 10000 nM. For `CN1CC[C@H](c2ccccc2)[C@@H]1[C@@H](O)c1cccs1`, the IC50 was > 10000 nM. As for `CN1C(=S)C[C@H](c2ccccc2)[C@@H]1[C@@H](O)c1cccs1`, the figure is > 10000 nM.
